# Data: US7700592B2, “α2C adrenoreceptor agonists” (Schering Corporation, priority 2005, dated 2010)
# Target: T1, α2C receptor (Homo sapiens, UniProt P18825)
# T1 sequence (P18825 1-462): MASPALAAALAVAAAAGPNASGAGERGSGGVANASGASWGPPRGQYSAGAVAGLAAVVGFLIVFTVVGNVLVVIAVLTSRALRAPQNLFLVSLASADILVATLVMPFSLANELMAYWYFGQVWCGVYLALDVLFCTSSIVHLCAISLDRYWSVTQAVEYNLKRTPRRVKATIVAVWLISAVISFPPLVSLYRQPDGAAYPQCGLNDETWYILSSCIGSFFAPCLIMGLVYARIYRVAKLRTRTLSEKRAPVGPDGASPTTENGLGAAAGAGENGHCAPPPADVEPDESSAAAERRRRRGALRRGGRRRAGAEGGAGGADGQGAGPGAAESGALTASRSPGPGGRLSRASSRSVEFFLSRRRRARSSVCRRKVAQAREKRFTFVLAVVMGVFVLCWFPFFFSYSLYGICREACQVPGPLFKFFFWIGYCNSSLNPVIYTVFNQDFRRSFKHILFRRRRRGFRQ
# Assay: GTPγS assay, efficacy agonist activity (Emax) for α2C
# Type: biochemical
# Conditions: active agonist = efficacy at α2C ≧30% Emax; functionally selective = additionally efficacy at α2A ≦30% Emax (GTPγS assay)
# Excerpt: For the purposes of this present invention, a compound is defined to be an active agonist of the α2C receptor subtype if the compound's efficacy at the α2C receptor is ≧30% Emax (GTPγS assay). A compound is a functionally selective agonist of the α2C receptor subtype over the α2A receptor subtype if the compound's efficacy at the α2C receptor is ≧30% Emax (GTPγS assay) and its efficacy at the α2A receptor is ≦30% Emax (GTPγS assay).
# Efficacy agonist activity values (Emax, GTPγS assay) for α2C were determined by following the general procedure detailed by Umland et al (“Receptor reserve analysis of the human α2c-adrenoceptor using [^35S]GTPγS and cAMP functional assays” European Journal of Pharmacology 2001, 411, 211-221). For the purposes of the present invention, a compound is defined to be an active agonist of the α2C receptor subtype if the compound's efficacy at the α2C receptor is ≧30% Emax (GTPγS assay). A compound is a functionally selective agonist of the α2C receptor subtype over the α2A receptor subtype if the compound's efficacy at the α2C receptor is […] Emax (GTPγS assay) and its efficacy at the α2A receptor is ≦30% Emax (GTPγS assay).
row,SMILES,"Efficacy agonist activity (Emax, GTPγS assay) for α2C: evaluated as active or functionally selective agonist"
1,CCN(C(=O)OCc1ccc(S(C)(=O)=O)cc1)c1ccc2c(c1)N(Cc1c[nH]cn1)CCO2 [Compound 65],active or functionally selective agonists of the α2C receptor subtype
2,COC(=O)Cc1ccc2c(c1)N(Cc1c[nH]cn1)CCO2 [Compound 114],active or functionally selective agonists of the α2C receptor subtype
3,c1cnc2c(c1)OCCN2Cc1c[nH]cn1 [Compound 117],active or functionally selective agonists of the α2C receptor subtype
4,Fc1cc(Br)cc2c1OCCN2Cc1c[nH]cn1 [Compound 124],active or functionally selective agonists of the α2C receptor subtype
5,N#Cc1cc(F)c2c(c1)N(Cc1c[nH]cn1)CCO2 [Compound 125],active or functionally selective agonists of the α2C receptor subtype
6,Cc1cc([N+](=O)[O-])cc2c1OCCN2Cc1c[nH]cn1 [Compound 129],active or functionally selective agonists of the α2C receptor subtype
7,COC(=O)Nc1cc(C)c2c(c1)N(Cc1c[nH]cn1)CCO2 [Compound 130],active or functionally selective agonists of the α2C receptor subtype
8,O=CNc1cc(F)c2c(c1)N(Cc1c[nH]cn1)CCO2 [Compound 132],active or functionally selective agonists of the α2C receptor subtype
9,CNC(=O)N(C)c1cc(F)c2c(c1)N(Cc1c[nH]cn1)CCO2 [Compound 134],active or functionally selective agonists of the α2C receptor subtype
10,COC(=O)N(C)c1cc(F)c2c(c1)N(Cc1c[nH]cn1)CCO2 [Compound 135],active or functionally selective agonists of the α2C receptor subtype
11,COC(=O)Nc1ccc2c(n1)N(Cc1c[nH]cn1)CCO2 [Compound 137],active or functionally selective agonists of the α2C receptor subtype
12,COC(=O)Nc1ccc2c(c1)N(CCc1c[nH]cn1)CCO2 [Compound 139],active or functionally selective agonists of the α2C receptor subtype
13,CN(C)S(=O)(=O)Nc1ccc2c(c1)N(Cc1c[nH]cn1)CCS2 [Compound 142],active or functionally selective agonists of the α2C receptor subtype
14,CNC(=O)N(C)c1ccc2c(c1)N(Cc1c[nH]cn1)CCS2 [Compound 144],active or functionally selective agonists of the α2C receptor subtype
15,FC(F)(F)c1ccc2c(c1)N(Cc1c[nH]cn1)CCS2 [Compound 145],active or functionally selective agonists of the α2C receptor subtype
16,COc1ccc(-c2ccc3c(c2)N(Cc2c[nH]cn2)CCO3)cn1 [Compound 148],active or functionally selective agonists of the α2C receptor subtype
17,CCN(C(=O)OC)c1ccc2c(c1)N(Cc1c[nH]cn1)CCO2 [Compound 151],active or functionally selective agonists of the α2C receptor subtype
18,N=C(N)c1cc(F)c2c(c1)N(Cc1c[nH]cn1)CCO2 [Compound 152],active or functionally selective agonists of the α2C receptor subtype
19,CCN(C(C)=O)c1ccc2c(c1)N(Cc1c[nH]cn1)CCO2 [Compound 158],active or functionally selective agonists of the α2C receptor subtype
20,CCOC(=O)N(CC)c1ccc2c(c1)N(Cc1c[nH]cn1)CCO2 [Compound 159],active or functionally selective agonists of the α2C receptor subtype
21,CCN(C(=O)OCCOC)c1ccc2c(c1)N(Cc1c[nH]cn1)CCO2 [Compound 160],active or functionally selective agonists of the α2C receptor subtype

row,SMILES,"Efficacy agonist activity (Emax, GTPγS assay) for α2C: evaluated as active or functionally selective agonist"
1,CC#CCOC(=O)N(CC)c1ccc2c(c1)N(Cc1c[nH]cn1)CCO2 [Compound 162],active or functionally selective agonists of the α2C receptor subtype
2,CCN(C(=O)COC)c1ccc2c(c1)N(Cc1c[nH]cn1)CCO2 [Compound 163],active or functionally selective agonists of the α2C receptor subtype
3,CCN(C(=O)CCOC)c1ccc2c(c1)N(Cc1c[nH]cn1)CCO2 [Compound 164],active or functionally selective agonists of the α2C receptor subtype
4,CCN(C(=O)COCCOC)c1ccc2c(c1)N(Cc1c[nH]cn1)CCO2 [Compound 165],active or functionally selective agonists of the α2C receptor subtype
5,CCN(C(=O)CCCc1ccccc1)c1ccc2c(c1)N(Cc1c[nH]cn1)CCO2 [Compound 167],active or functionally selective agonists of the α2C receptor subtype
6,CNC(=O)N(C)c1ccc2c(c1)N(C(C#N)c1c[nH]cn1)CCO2 (centres unmarked) [Compound 168],active or functionally selective agonists of the α2C receptor subtype
7,CCN(C(=O)NC)c1ccc2c(c1)N(C(C#N)c1c[nH]cn1)CCO2 (centres unmarked) [Compound 169],active or functionally selective agonists of the α2C receptor subtype
8,COC(=O)Nc1ccc2c(c1)N(C(C#N)c1c[nH]cn1)CCO2 (centres unmarked) [Compound 171],active or functionally selective agonists of the α2C receptor subtype
9,CCN(C(=O)OC)c1cc(F)c2c(c1)N(Cc1c[nH]cn1)CCO2 [Compound 178],active or functionally selective agonists of the α2C receptor subtype
10,COC(=O)Nc1cc(F)c2c(c1)N(C(C#N)c1c[nH]cn1)CCO2 (centres unmarked) [Compound 181],active or functionally selective agonists of the α2C receptor subtype
11,CNC(=O)N(C)c1ccc2c(c1)N(Cc1c[nH]cn1)CCCO2 [Compound 223],active or functionally selective agonists of the α2C receptor subtype
12,COCCOC(=O)N(C)c1ccc2c(n1)N(Cc1c[nH]cn1)CCO2 [Compound 231],active or functionally selective agonists of the α2C receptor subtype
13,CNC(=O)N(C)c1cc(Cl)c2c(c1)N(Cc1c[nH]cn1)CCO2 [Compound 232],active or functionally selective agonists of the α2C receptor subtype
14,CONC(=O)N(C)c1cc(Cl)c2c(c1)N(Cc1c[nH]cn1)CCO2 [Compound 235],active or functionally selective agonists of the α2C receptor subtype
15,CCN(C(=O)NC)c1cc(Cl)c2c(c1)N(Cc1c[nH]cn1)CCO2 [Compound 236],active or functionally selective agonists of the α2C receptor subtype
16,CCCN(C(=O)NC)c1ccc2c(c1)N(Cc1c[nH]cn1)CCO2 [Compound 238],active or functionally selective agonists of the α2C receptor subtype
17,CNC(=O)N(C)c1cc(C)c2c(c1)N(Cc1c[nH]cn1)CCO2 [Compound 239],active or functionally selective agonists of the α2C receptor subtype
18,COC(=O)N(C)c1cc(C)c2c(c1)N(Cc1c[nH]cn1)CCO2 [Compound 240],active or functionally selective agonists of the α2C receptor subtype
19,COCC(=O)N(C)c1ccc2c(c1)N(Cc1c[nH]cn1)CCO2 [Compound 242],active or functionally selective agonists of the α2C receptor subtype
20,CONC(=O)N(C)c1ccc2c(c1)N(Cc1c[nH]cn1)CCO2 [Compound 243],active or functionally selective agonists of the α2C receptor subtype
